According to US12497663B2, “Method of monitoring treatment” (LDN Pharma Limited, priority 2019, dated 2025):

System: CD3+ cells
Experiment: Gene expression in CD3+ cells from CD14-ve PBMCs cultured with naltrexone (Illumina biochips)
Format: cell-based, human
Details: 4 h
Method: The RNA was then extracted from the cells using Trizol then isopropanol. The expression of the genes was measured using Illumina platform with biochips surveying the total human genome. […] The ratio of treated:untreated was calculated and the 25% change from untreated considered relevant.

Structure (SMILES): O=C1CC[C@@]2(O)[C@H]3Cc4ccc(O)c5c4[C@@]2(CCN3CC2CC2)[C@H]1O5 [NTX, morphinan-6-one,17-(cyclopropylmethyl)-4,5-epoxy-3,14-dihydroxy-(5a)]
- number of genes upregulated by LDN but unchanged by NTX (10 nM LDN vs 10 uM NTX, 19,571 genes called present, 25% change relevant): 223 genes
- ACTB expression, LDN (10 nM naltrexone (LDN)): 156
- ALDH4A1 expression, LDN (10 nM naltrexone (LDN)): 135
- ASAP1 expression, LDN (10 nM naltrexone (LDN)): 97
- BCLAF1 expression, LDN (10 nM naltrexone (LDN)): 130
- BIRC3 expression, LDN (10 nM naltrexone (LDN)): 173
- CASZ1 expression, LDN (10 nM naltrexone (LDN)): 167
- CDC42SE2 expression, LDN (10 nM naltrexone (LDN)): 119
- CDKN2AIP expression, LDN (10 nM naltrexone (LDN)): 93
- DRAP1 expression, LDN (10 nM naltrexone (LDN)): 309
- DYNLL2 expression, LDN (10 nM naltrexone (LDN)): 93
- EIF2S3 expression, LDN (10 nM naltrexone (LDN)): 135
- EIF3E expression, LDN (10 nM naltrexone (LDN)): 427
- EIF4B expression, LDN (10 nM naltrexone (LDN)): 594
- EZR expression, LDN (10 nM naltrexone (LDN)): 1218
- FRG1 expression, LDN (10 nM naltrexone (LDN)): 99
- H3F3A expression, LDN (10 nM naltrexone (LDN)): 616
- HIST1H4C expression, LDN (10 nM naltrexone (LDN)): 1093
- HPCAL1 expression, LDN (10 nM naltrexone (LDN)): 491
- ITGB2 expression, LDN (10 nM naltrexone (LDN)): 719
- KCTD6 expression, LDN (10 nM naltrexone (LDN)): 105
- LSM5 expression, LDN (10 nM naltrexone (LDN)): 166
- MAP4K1 expression, LDN (10 nM naltrexone (LDN)): 475
- MORF4L1 expression, LDN (10 nM naltrexone (LDN)): 135
- MTF1 expression, LDN (10 nM naltrexone (LDN)): 84
- MYLK expression, LDN (10 nM naltrexone (LDN)): 166
- NUCB1 expression, LDN (10 nM naltrexone (LDN)): 436
- OR10A6 expression, LDN (10 nM naltrexone (LDN)): 152
- PAH expression, LDN (10 nM naltrexone (LDN)): 135
- PDCD4 expression, LDN (10 nM naltrexone (LDN)): 83
- PECI expression, LDN (10 nM naltrexone (LDN)): 85
- PRPF8 expression, LDN (10 nM naltrexone (LDN)): 464
- PSME2 expression, LDN (10 nM naltrexone (LDN)): 144
- PVRL2 expression, LDN (10 nM naltrexone (LDN)): 151
- RASAL3 expression, LDN (10 nM naltrexone (LDN)): 356
- S100A6 expression, LDN (10 nM naltrexone (LDN)): 240
- SH3BGRL3 expression, LDN (10 nM naltrexone (LDN)): 327
- SPOCK2 expression, LDN (10 nM naltrexone (LDN)): 1322
- WDR75 expression, LDN (10 nM naltrexone (LDN)): 81
- YWHAZ expression, LDN (10 nM naltrexone (LDN)): 809
- ACTB L/U-score (10 nM naltrexone): U (increase)
- ALDH4A1 L/U-score (10 nM naltrexone): U (increase)
- ASAP1 L/U-score (10 nM naltrexone): D (reduction)
- BCLAF1 L/U-score (10 nM naltrexone): D (reduction)
- BIRC3 L/U-score (10 nM naltrexone): D (reduction)
- CASZ1 L/U-score (10 nM naltrexone): U (increase)
- CDC42SE2 L/U-score (10 nM naltrexone): D (reduction)
- CDKN2AIP L/U-score (10 nM naltrexone): D (reduction)
- DRAP1 L/U-score (10 nM naltrexone): U (increase)
- DYNLL2 L/U-score (10 nM naltrexone): D (reduction)
- EIF2S3 L/U-score (10 nM naltrexone): D (reduction)
- EIF3E L/U-score (10 nM naltrexone): D (reduction)
- EIF3M L/U-score (10 nM naltrexone): D (reduction)
- EIF4B L/U-score (10 nM naltrexone): U (increase)
- EZR L/U-score (10 nM naltrexone): U (increase)
- FRG1 L/U-score (10 nM naltrexone): D (reduction)
- H3F3A L/U-score (10 nM naltrexone): D (reduction)
- HIST1H4C L/U-score (10 nM naltrexone): D (reduction)
- HPCAL1 L/U-score (10 nM naltrexone): U (increase)
- ITGB2 L/U-score (10 nM naltrexone): U (increase)
- KCTD6 L/U-score (10 nM naltrexone): D (reduction)
- LSM5 L/U-score (10 nM naltrexone): D (reduction)
- MAP4K1 L/U-score (10 nM naltrexone): U (increase)
- MORF4L1 L/U-score (10 nM naltrexone): D (reduction)
- MTF1 L/U-score (10 nM naltrexone): D (reduction)
- MYLK L/U-score (10 nM naltrexone): U (increase)
- NUCB1 L/U-score (10 nM naltrexone): U (increase)
- OR10A6 L/U-score (10 nM naltrexone): U (increase)
- PAH L/U-score (10 nM naltrexone): U (increase)
- PDCD4 L/U-score (10 nM naltrexone): D (reduction)
- PECI L/U-score (10 nM naltrexone): D (reduction)
- PRPF8 L/U-score (10 nM naltrexone): U (increase)
- PSME2 L/U-score (10 nM naltrexone): D (reduction)
- PVRL2 L/U-score (10 nM naltrexone): U (increase)
- RASAL3 L/U-score (10 nM naltrexone): U (increase)
- S100A6 L/U-score (10 nM naltrexone): U (increase)
- SH3BGRL3 L/U-score (10 nM naltrexone): U (increase)
- SPOCK2 L/U-score (10 nM naltrexone): U (increase)
- WDR75 L/U-score (10 nM naltrexone): D (reduction)
- YWHAZ L/U-score (10 nM naltrexone): U (increase)
- ACTB expression, NTX (10 uM naltrexone (NTX)): 124
- ALDH4A1 expression, NTX (10 uM naltrexone (NTX)): 95
- ASAP1 expression, NTX (10 uM naltrexone (NTX)): 114
- BCLAF1 expression, NTX (10 uM naltrexone (NTX)): 159
- BIRC3 expression, NTX (10 uM naltrexone (NTX)): 226
- CASZ1 expression, NTX (10 uM naltrexone (NTX)): 107
- CDC42SE2 expression, NTX (10 uM naltrexone (NTX)): 161
- CDKN2AIP expression, NTX (10 uM naltrexone (NTX)): 101
- DRAP1 expression, NTX (10 uM naltrexone (NTX)): 178
- DYNLL2 expression, NTX (10 uM naltrexone (NTX)): 115
- EIF2S3 expression, NTX (10 uM naltrexone (NTX)): 146
- EIF3E expression, NTX (10 uM naltrexone (NTX)): 601
- EIF3M expression, NTX (10 uM naltrexone (NTX)): 131
- EIF4B expression, NTX (10 uM naltrexone (NTX)): 423
- EZR expression, NTX (10 uM naltrexone (NTX)): 841
- FRG1 expression, NTX (10 uM naltrexone (NTX)): 124
- H3F3A expression, NTX (10 uM naltrexone (NTX)): 739
- HIST1H4C expression, NTX (10 uM naltrexone (NTX)): 1370
- HPCAL1 expression, NTX (10 uM naltrexone (NTX)): 275
- ITGB2 expression, NTX (10 uM naltrexone (NTX)): 443
- KCTD6 expression, NTX (10 uM naltrexone (NTX)): 116
- LSM5 expression, NTX (10 uM naltrexone (NTX)): 218
- MAP4K1 expression, NTX (10 uM naltrexone (NTX)): 267
- MORF4L1 expression, NTX (10 uM naltrexone (NTX)): 149
- MTF1 expression, NTX (10 uM naltrexone (NTX)): 95
- MYLK expression, NTX (10 uM naltrexone (NTX)): 124
- NUCB1 expression, NTX (10 uM naltrexone (NTX)): 337
- OR10A6 expression, NTX (10 uM naltrexone (NTX)): 120
- PAH expression, NTX (10 uM naltrexone (NTX)): 95
- PDCD4 expression, NTX (10 uM naltrexone (NTX)): 96
- PECI expression, NTX (10 uM naltrexone (NTX)): 131
- PRPF8 expression, NTX (10 uM naltrexone (NTX)): 353
- PSME2 expression, NTX (10 uM naltrexone (NTX)): 180
- PVRL2 expression, NTX (10 uM naltrexone (NTX)): 113
- RASAL3 expression, NTX (10 uM naltrexone (NTX)): 186
- S100A6 expression, NTX (10 uM naltrexone (NTX)): 112
- SH3BGRL3 expression, NTX (10 uM naltrexone (NTX)): 271
- WDR75 expression, NTX (10 uM naltrexone (NTX)): 95
- YWHAZ expression, NTX (10 uM naltrexone (NTX)): 462
- ACTB N/U-score (10 uM naltrexone): o (no change)
